The text below walks through data of ChEMBL document CHEMBL1144647, “Additional interaction of allophenylnorstatine-containing tripeptidomimetics with malarial aspartic protease plasmepsin II” (Bioorg Med Chem Lett, 2007).

One experiment addresses Plasmepsin II (Plasmodium falciparum, UniProt P46925). Put plainly: Inhibition of Plasmodium falciparum plasmepsin-2.
For another experiment, the system named is Plasmodium falciparum. Put plainly: Antimicrobial activity against Plasmodium falciparum in erythrocytes. The class given is functional, organism-based.
In experiment [1] the test system is Human immunodeficiency virus 1. Put plainly: Inhibition of HIV1 protease at 50 nM.
Experiment [2] can be described thus: Selectivity for Plasmodium falciparum plasmepsin-2 over human cathepsin D.

SMILES strings stand for the structures. A value given as a limit tells only on which side of the number the result lay.

Chain of Plasmepsin II (P46925 whole entry): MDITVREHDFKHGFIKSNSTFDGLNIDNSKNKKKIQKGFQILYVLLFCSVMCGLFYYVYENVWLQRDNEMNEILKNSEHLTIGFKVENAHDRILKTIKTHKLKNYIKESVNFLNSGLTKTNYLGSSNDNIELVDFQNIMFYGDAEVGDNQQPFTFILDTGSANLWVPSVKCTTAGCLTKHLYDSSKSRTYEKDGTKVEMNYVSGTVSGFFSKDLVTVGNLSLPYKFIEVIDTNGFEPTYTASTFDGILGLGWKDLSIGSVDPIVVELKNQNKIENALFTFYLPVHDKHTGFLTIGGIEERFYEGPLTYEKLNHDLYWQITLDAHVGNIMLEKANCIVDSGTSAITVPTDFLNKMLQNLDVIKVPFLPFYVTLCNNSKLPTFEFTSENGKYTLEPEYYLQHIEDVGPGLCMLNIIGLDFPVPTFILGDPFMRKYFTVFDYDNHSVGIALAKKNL

Molecule `CSC[C@H](NC(=O)COc1cccc2cnccc12)C(=O)N[C@@H](Cc1ccccc1)[C@H](O)C(=O)N1CSC(C)(C)[C@H]1C(=O)N[C@H]1c2ccccc2C[C@H]1O` returned a Ki on Plasmepsin II of 3 nM. The EC50 in the experiment on Plasmodium falciparum stood at 3100 nM. Moreover, in experiment [1], the inhibition was 99%.

Consider `CSC[C@H](NC(=O)Cc1ccccc1N)C(=O)N[C@@H](Cc1ccccc1)[C@H](O)C(=O)N1CSC(C)(C)[C@H]1C(=O)N[C@H]1c2ccccc2C[C@H]1O`, for which, on Plasmepsin II, the affinity, expressed as Ki, was 4 nM. The molecule further yielded an inhibition in experiment [1] of 86%.

In the case of `CSC[C@H](NC(=O)COc1cccc2cnccc12)C(=O)N[C@@H](Cc1ccccc1)[C@H](O)C(=O)N1CSC[C@H]1C(=O)NC(C)(C)C`, the Ki on Plasmepsin II amounted to 1000 nM.

Take `CSC[C@H](NC(=O)COc1cccc(Nc2ccccc2)c1)C(=O)N[C@@H](Cc1ccccc1)[C@H](O)C(=O)N1CSC(C)(C)[C@H]1C(=O)N[C@H]1c2ccccc2C[C@H]1O`: the Ki at Plasmepsin II is 15 nM. The same molecule returned an inhibition in experiment [1] of 98%.

Regarding `CSC[C@H](NC(=O)Cc1ccccc1O)C(=O)N[C@@H](Cc1ccccc1)[C@H](O)C(=O)N1CSC(C)(C)[C@H]1C(=O)N[C@H]1c2ccccc2C[C@H]1O`, the affinity on Plasmepsin II, expressed as Ki, was 16 nM. In addition, the inhibition in experiment [1] is 86%.

`COc1cccc(CC(=O)N[C@@H](CSC)C(=O)N[C@@H](Cc2ccccc2)[C@H](O)C(=O)N2CSC(C)(C)[C@H]2C(=O)N[C@H]2c3ccccc3C[C@H]2O)c1` registered a Ki on Plasmepsin II of 17 nM. Further, the inhibition in experiment [1] is 88%.

Consider `CSC[C@H](NC(=O)Cc1ccccc1C)C(=O)N[C@@H](Cc1ccccc1)[C@H](O)C(=O)N1CSC(C)(C)[C@H]1C(=O)N[C@H]1c2ccccc2C[C@H]1O`, for which the Ki at Plasmepsin II was determined as 0.2 nM. Besides, a half-maximal effect in the experiment on Plasmodium falciparum (EC50) was put at 4700 nM. In experiment [1], this molecule yielded an inhibition of 83%.

`CSC[C@H](NC(=O)OC1CCCCC1)C(=O)N[C@@H](Cc1ccccc1)[C@H](O)C(=O)N1CSC(C)(C)[C@H]1C(=O)N[C@H]1c2ccccc2C[C@H]1O`: at Plasmepsin II, the Ki was 5 nM. In experiment [1], this molecule displayed an inhibition of 56%.

With `CSC[C@H](NC(=O)Cc1cccc(O)c1)C(=O)N[C@@H](Cc1ccccc1)[C@H](O)C(=O)N1CSC(C)(C)[C@H]1C(=O)N[C@H]1c2ccccc2C[C@H]1O`, the Ki at Plasmepsin II was 4 nM. In experiment [1], the inhibition is 84%.

At Plasmepsin II, `CSC[C@H](NC(=O)Cc1ccc(C)cc1)C(=O)N[C@@H](Cc1ccccc1)[C@H](O)C(=O)N1CSC(C)(C)[C@H]1C(=O)N[C@H]1c2ccccc2C[C@H]1O` came in with a Ki of 5 nM. In experiment [1], this molecule yielded an inhibition of 88%.

On Plasmepsin II, `CSC[C@H](NC(=O)Cc1ccccc1)C(=O)N[C@@H](Cc1ccccc1)[C@H](O)C(=O)N1CSC(C)(C)[C@H]1C(=O)N[C@H]1c2ccccc2C[C@H]1O` yielded a Ki of at most 0.1 nM. Also, the inhibition in experiment [1] was determined as 85%.

On Plasmepsin II, `CSC[C@H](NC(=O)Cc1cccc(N)c1)C(=O)N[C@@H](Cc1ccccc1)[C@H](O)C(=O)N1CSC(C)(C)[C@H]1C(=O)N[C@H]1c2ccccc2C[C@H]1O` registered a Ki of 12 nM. The molecule also registered an inhibition in experiment [1] of 76%.

At Plasmepsin II, `CSC[C@H](NC(=O)c1cc(=O)c2ccccc2o1)C(=O)N[C@@H](Cc1ccccc1)[C@H](O)C(=O)N1CSC(C)(C)[C@H]1C(=O)N[C@H]1c2ccccc2C[C@H]1O` returned a Ki of 9 nM. Moreover, in experiment [1], the inhibition came to 99%.

`CSC[C@H](NC(=O)Cc1ccc(N)cc1)C(=O)N[C@@H](Cc1ccccc1)[C@H](O)C(=O)N1CSC(C)(C)[C@H]1C(=O)N[C@H]1c2ccccc2C[C@H]1O`: the Ki at Plasmepsin II was at most 0.1 nM. In experiment [1], the inhibition was 68%.

At Plasmepsin II, `Cc1cccc(C)c1OCC(=O)N[C@@H](Cc1ccccc1)[C@H](O)C(=O)N1CSC(C)(C)[C@H]1C(=O)N[C@H]1c2ccccc2C[C@H]1O` came in with a Ki of 0.5 nM. The molecule further had an EC50 with Plasmodium falciparum of 6800 nM.

In turn, `COc1ccccc1CC(=O)N[C@@H](CSC)C(=O)N[C@@H](Cc1ccccc1)[C@H](O)C(=O)N1CSC(C)(C)[C@H]1C(=O)N[C@H]1c2ccccc2C[C@H]1O` gave a Ki on Plasmepsin II of 9 nM. For the same molecule, the inhibition in experiment [1] was determined as 81%.

As to `CSC[C@H](NC(=O)Cc1ccc(O)cc1)C(=O)N[C@@H](Cc1ccccc1)[C@H](O)C(=O)N1CSC(C)(C)[C@H]1C(=O)N[C@H]1c2ccccc2C[C@H]1O`, at Plasmepsin II, the Ki is at most 0.1 nM. Further, the inhibition in experiment [1] amounted to 88%.

At Plasmepsin II, `CSC[C@H](NC(=O)COc1cccc2cnccc12)C(=O)N[C@@H](Cc1ccccc1)[C@H](O)C(=O)N1CSC(C)(C)[C@H]1C(=O)NC(C)(C)C` had a Ki of 36 nM. Further, the Ratio in experiment [2] stood at 50.

For `COc1ccc(CC(=O)N[C@@H](CSC)C(=O)N[C@@H](Cc2ccccc2)[C@H](O)C(=O)N2CSC(C)(C)[C@H]2C(=O)N[C@H]2c3ccccc3C[C@H]2O)cc1`, at Plasmepsin II, the affinity corresponds to a Ki of 4 nM. Further, in experiment [1], the inhibition came to 91%.

Turning to `CSC[C@H](NC(=O)Cc1cccc(C)c1)C(=O)N[C@@H](Cc1ccccc1)[C@H](O)C(=O)N1CSC(C)(C)[C@H]1C(=O)N[C@H]1c2ccccc2C[C@H]1O`, on Plasmepsin II, the Ki was 18 nM. The molecule also gave an inhibition in experiment [1] of 87%.

One may read the Ki as a dissociation constant, usually derived from enzyme kinetics or from competition with a known ligand. High values mean lower affinity, low ones higher affinity. Usually EC50 stands for the concentration that produces a half-maximal response. The low end stands for a more potent agent, the high end for a less potent agent. Broadly, the inhibition is the relative decrease from the control value, in per cent. Read a low inhibition as little suppression.
